Results as given in article PMC4332668, “Characterization of a Novel PQQ-Dependent Quinohemoprotein Pyranose Dehydrogenase from Coprinopsis cinerea Classified into Auxiliary Activities Family 12 in Carbohydrate-Active Enzymes” (PLoS ONE, 2015).

Biological target: T1, DHPDH (Coprinopsis cinerea, UniProt A8P0V4)
T1 construct: gene PDH; isolated PQQ (AA12) dehydrogenase domain, residues 240-649, recombinant from Pichia pastoris, purified as apo-form
T1 sequence (A8P0V4 240-649): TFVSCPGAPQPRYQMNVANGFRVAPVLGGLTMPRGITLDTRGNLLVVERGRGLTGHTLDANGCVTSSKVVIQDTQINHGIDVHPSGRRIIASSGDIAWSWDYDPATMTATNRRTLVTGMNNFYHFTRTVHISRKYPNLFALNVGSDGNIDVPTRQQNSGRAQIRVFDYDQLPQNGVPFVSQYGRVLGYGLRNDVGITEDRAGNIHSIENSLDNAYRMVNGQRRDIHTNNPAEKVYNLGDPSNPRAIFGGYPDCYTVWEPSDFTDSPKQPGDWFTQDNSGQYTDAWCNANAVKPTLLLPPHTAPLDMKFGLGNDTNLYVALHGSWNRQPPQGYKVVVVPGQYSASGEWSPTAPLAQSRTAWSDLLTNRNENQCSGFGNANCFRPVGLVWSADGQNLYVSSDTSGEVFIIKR
Experiment: UV-vis spectral reduction of PQQ; PMS/DCPIP assay
Assay type: biochemical
Conditions: holo-form; 1 mM L-fucose; 50 mM HEPES pH 7.0; 1 mM CaCl2; room temperature (spectra)

For `C[C@@H]1OC(O)[C@@H](O)[C@H](O)[C@@H]1O` (stereo partly drawn) [L-fucose], the “UV-vis spectral reduction of PQQ; PMS/DCPIP assay” value was “The addition of L-fucose resulted in the reduction of PQQ”.
